Data taken from patent US20100298141A1, “SUBSTITUTED PYRIDINE N-OXIDE HERBICIDES” (E. I. DU PONT DE NEMOURS AND COMPANY, priority 2007, published 2010).

How the values were obtained:
[1] = tested on: barnyardgrass; assay: Test F preemergence test; type: in vivo, Echinochloa crus-galli
Excerpt: (§1) Seeds of plant species selected from bermudagrass (Cynodon dactylon), Surinam grass (Brachiaria decumbens), large crabgrass (Digitaria sanguinalis), green foxtail (Setaria viridis), goosegrass (Eleusine indica), johnsongrass (Sorghum halepense), kochia (Kochia scoparia), pitted morningglory (Ipomoea lacunosa), purple nutsedge (Cyperus rotundus), common ragweed (Ambrosia elation), mustard (Brassica nigra), guineagrass (Panicum maximum), […] (Paspalum dilatatum), barnyardgrass (Echinochloa crus-galli), southern sandbur (Cenchrus echinatus), common sowthistle (Sonchus oleraceous), prickly […] spinosa), Italian ryegrass (Lolium multiflorum), common purslane (Portulaca oleracea), broadleaf signalgrass (Brachiaria platyphylla), common groundsel (Senecio vulgaris), common chickweed (Stellaria media), Virginia dayflower (Commelina virginica), annual bluegrass (Poa annua), naked crabgrass (Digitaria nuda), […] cochinchinensis), quackgrass (Elytrigia repens), Canada horseweed (Conyza canadensis), field bindweed (Convolvulus arvensis), […] (Bidens bipinnata), common mallow (Malva sylvestris), Russian thistle (Salsola kali), and sugarcane (Saccharum officinarum) were planted and treated preemergence with test chemicals formulated in a non-phytotoxic solvent mixture which included a surfactant. At a different time, sugarcane was treated with postemergence applications of some of the test chemicals formulated in the same manner. Plants were approximately 3- to 4-leaf stage for the postemergence treatments. Treated plants and controls were maintained in a greenhouse for 14 to 21 days, after which time all species were compared to controls and visually evaluated. […] A dash (-) response means no test result.

[2] = tested on: field bindweed; assay: Test F preemergence test; type: in vivo, Convolvulus arvensis; details: scale 0 to 100
Excerpt: as §1

[3] = tested on: green foxtail; assay: Test F preemergence test; type: in vivo, Setaria viridis; details: scale 0 to 100
Excerpt: as §1

[4] = tested on: Virginia dayflower; assay: Test F preemergence test; type: in vivo, Commelina virginica; details: scale 0 to 100
Excerpt: as §1

[5] = tested on: kochia; assay: Test C pre-/postemergence test; type: in vivo, Kochia scoparia
Outline: (§2)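 Compounds in a non-phytotoxic solvent with surfactant applied preemergence to seeded pots and, at the same time, postemergence to plants 2–18 cm tall (1- to 4-leaf stage). Paddy tests: pots flooded to 3 cm, compound applied into the water, depth held throughout.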

[6] = tested on: cocklebur; assay: Test C pre-/postemergence test; type: in vivo, Xanthium strumarium
Outline: as §2

[7] = tested on: velvetleaf; assay: Test C pre-/postemergence test; type: in vivo, Abutilon theophrasti
Outline: as §2

[8] = tested on: barnyardgrass; assay: Test A pre-/postemergence greenhouse test; type: in vivo, Echinochloa crus-galli; details: for Plant response rating, Barnyardgrass: 0 to 100 scale where 0 is no effect and 100 is complete control; for Barnyardgrass plant response rating: 0 to 100 scale
Outline: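 Pots of loam–sand soil sown with the test species are sprayed preemergence on the soil surface; emerged seedlings (1–2 leaves, 2–10 cm) are sprayed postemergence at the same time. The vehicle is a non-phytotoxic solvent mixture with surfactant. Injury is scored visually after ~10 d in greenhouse.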

[9] = tested on: dallisgrass; assay: Test F preemergence test; type: in vivo, Paspalum dilatatum; details: scale 0 to 100
Excerpt: as §1

[10] = tested on: broadleaf signalgrass; assay: Test F preemergence test; type: in vivo, Brachiaria platyphylla; details: scale 0 to 100; for Signalgrass plant response rating: 125 g ai/ha
Excerpt: as §1

[11] = tested on: itchgrass; assay: Test F preemergence test; type: in vivo, Rottboellia cochinchinensis; details: scale 0 to 100
Excerpt: as §1

[12] = tested on: mustard; assay: Test F preemergence test; type: in vivo, Brassica nigra; details: scale 0 to 100
Excerpt: as §1

[13] = tested on: annual bluegrass; assay: Test F preemergence test; type: in vivo, Poa annua; details: scale 0 to 100
Excerpt: as §1

[14] = 16 g ai/ha, preemergence, scale 0 to 100 (0 no effect, 100 complete control)
[15] = 62 g ai/ha, Preemergence, scale 0 to 100
[16] = 125 g ai/ha, preemergence, scale 0 to 100
[17] = Preemergence, 31 g ai/ha, scale 0 to 100
[18] = 125 g ai/ha, preemergence, scale 0 (no effect) to 100 (complete control)
[19] = Postemergence, 125 g ai/ha, scale 0 to 100, 0 no effect, 100 complete control
[20] = Postemergence, 250 g ai/ha, scale 0 to 100, 0 no effect, 100 complete control
[21] = Preemergence, 31 g ai/ha, scale 0 to 100 (0 no effect, 100 complete control)
[22] = preemergence, 250 g ai/ha, scale 0 (no effect) to 100 (complete control)
[23] = Postemergence, 500 g ai/ha, 0 is no effect, 100 is complete control
[24] = Preemergence, 125 g ai/ha, 0 no effect, 100 complete control

With `Cn1nc(C(F)(F)C(F)(F)F)c(C[S+]([O-])c2cccc[n+]2[O-])c1OCC(F)(F)F` (stereo not drawn) [Compound 79] the “Plant response rating, Barnyardgrass” value [1, 14] was 20, the “Barnyardgrass plant response rating” value [1, 15] was 100 and the “Barnyardgrass plant response rating” value [1, 16] was 100. For the same compound, the “Plant response rating, Barnyardgrass” value [1, 17] was 80, the “Plant response rating, Field Bindweed” value ([2]; 16 g ai/ha, preemergence) was 60 and the “Field Bindweed plant response rating” value ([2]; 62 g ai/ha, Preemergence) was 80. The “Field Bindweed plant response rating” value ([2]; 125 g ai/ha, preemergence) was 95, the “Plant response rating, Field Bindweed” value ([2]; Preemergence, 31 g ai/ha) was 70 and the “Plant response rating, Foxtail, Green” value ([3]; 16 g ai/ha, preemergence) was 20. The “Foxtail, Green plant response rating” value ([3]; 62 g ai/ha, Preemergence) was 90, the “Foxtail, Green plant response rating” value ([3]; 125 g ai/ha, preemergence) was 100 and the “Plant response rating, Foxtail, Green” value ([3]; Preemergence, 31 g ai/ha) was 60. For the same compound, the “Dayflower plant response rating” value ([4]; 62 g ai/ha, Preemergence) was 50, the “Dayflower plant response rating” value ([4]; 125 g ai/ha, preemergence) was 100 and the “Plant response rating, Dayflower” value ([4]; Preemergence, 31 g ai/ha) was 20. For the same compound, the “Kochia plant response rating” value [5, 15] was 100, the “Kochia plant response rating” value [5, 18] was 100 and the “Plant response rating (0 to 100), Kochia” value ([5]; Postemergence, 31 g ai/ha) was 0. For the same compound, the “Plant response rating (0 to 100), Kochia” value ([5]; Postemergence, 62 g ai/ha) was 0, the “Plant response rating, Kochia” value [5, 19] was 0 and the “Plant response rating, Kochia” value [5, 20] was 0. The “Plant response rating, Kochia” value [5, 21] was 100, the “Kochia plant response rating” value [5, 22] was 100 and the “Cocklebur plant response rating” value [6, 15] was 0. For the same compound, the “Cocklebur plant response rating” value [6, 18] was 50, the “Plant response rating (0 to 100), Cocklebur” value ([6]; Postemergence, 31 g ai/ha) was 0 and the “Plant response rating (0 to 100), Cocklebur” value ([6]; Postemergence, 62 g ai/ha) was 0. For the same compound, the “Plant response rating, Cocklebur” value [6, 19] was 0, the “Plant response rating, Cocklebur” value [6, 20] was 0 and the “Plant response rating, Cocklebur” value [6, 21] was 0. For the same compound, the “Cocklebur plant response rating” value [6, 22] was 50, the “Velvetleaf plant response rating” value [7, 15] was 100 and the “Velvetleaf plant response rating” value [7, 18] was 100. For the same compound, the “Plant response rating (0 to 100), Velvetleaf” value ([7]; Postemergence, 31 g ai/ha) was 0, the “Plant response rating (0 to 100), Velvetleaf” value ([7]; Postemergence, 62 g ai/ha) was 0 and the “Plant response rating, Velvetleaf” value [7, 19] was 50. For the same compound, the “Plant response rating, Velvetleaf” value [7, 20] was 70, the “Plant response rating, Velvetleaf” value [7, 21] was 100 and the “Velvetleaf plant response rating” value [7, 22] was 100. The “Plant response rating, Barnyardgrass” value ([8]; Postemergence, 125 g ai/ha) was 80, the “Barnyardgrass plant response rating” value [8, 23] was 90 and the “Barnyardgrass plant response rating” value [8, 24] was 100. For the same compound, the “Plant response rating, Barnyardgrass” value ([8]; Preemergence, 500 g ai/ha) was 100, the “Plant response rating, Dallisgrass” value ([9]; 16 g ai/ha, preemergence) was 0 and the “Dallisgrass plant response rating” value ([9]; 62 g ai/ha, Preemergence) was 90. The “Dallisgrass plant response rating” value ([9]; 125 g ai/ha, preemergence) was 100, the “Plant response rating, Dallisgrass” value ([9]; Preemergence, 31 g ai/ha) was 40 and the “Plant response rating, Signalgrass” value ([10]; 16 g ai/ha, preemergence) was 0. For the same compound, the “Signalgrass plant response rating” value ([10]; preemergence) was 100, the “Plant response rating, Signalgrass” value ([10]; Preemergence, 62 g ai/ha) was 30 and the “Plant response rating, Signalgrass” value ([10]; Preemergence, 31 g ai/ha) was 0. The “Plant response rating, Itchgrass” value ([11]; 16 g ai/ha, preemergence) was 0, the “Itchgrass plant response rating” value ([11]; 62 g ai/ha, Preemergence) was 75 and the “Itchgrass plant response rating” value ([11]; 125 g ai/ha, preemergence) was 95. For the same compound, the “Plant response rating, Itchgrass” value ([11]; Preemergence, 31 g ai/ha) was 75, the “Plant response rating, Black Mustard” value ([12]; 16 g ai/ha, preemergence) was 100 and the “Black Mustard plant response rating” value ([12]; 62 g ai/ha, Preemergence) was 100. For the same compound, the “Black Mustard plant response rating” value ([12]; 125 g ai/ha, preemergence) was 100, the “Plant response rating, Black Mustard” value ([12]; Preemergence, 31 g ai/ha) was 100 and the “Plant response rating, Bluegrass” value ([13]; 16 g ai/ha, preemergence) was 0. The “Bluegrass plant response rating” value ([13]; 62 g ai/ha, Preemergence) was 90, the “Bluegrass plant response rating” value ([13]; 125 g ai/ha, preemergence) was 100 and the “Plant response rating, Bluegrass” value ([13]; Preemergence, 31 g ai/ha) was 0.

With `Cc1cc([S+]([O-])Cc2c(C(F)(F)F)nn(C)c2OCC(F)(F)F)[n+]([O-])cc1Cl` (stereo not drawn) [Compound 70] the “Plant response rating, Barnyardgrass” value [1, 14] was 60, the “Barnyardgrass plant response rating” value [1, 15] was 95 and the “Barnyardgrass plant response rating” value [1, 16] was 100. The “Plant response rating, Barnyardgrass” value [1, 17] was 70, the “Plant response rating, Field Bindweed” value ([2]; 16 g ai/ha, preemergence) was 40 and the “Field Bindweed plant response rating” value ([2]; 62 g ai/ha, Preemergence) was 40. For the same compound, the “Field Bindweed plant response rating” value ([2]; 125 g ai/ha, preemergence) was 40, the “Plant response rating, Field Bindweed” value ([2]; Preemergence, 31 g ai/ha) was 40 and the “Foxtail, Green plant response rating” value ([3]; 62 g ai/ha, Preemergence) was 75. For the same compound, the “Foxtail, Green plant response rating” value ([3]; 125 g ai/ha, preemergence) was 90, the “Plant response rating, Foxtail, Green” value ([3]; Preemergence, 31 g ai/ha) was 65 and the “Plant response rating, Dayflower” value ([4]; 16 g ai/ha, preemergence) was 90. The “Dayflower plant response rating” value ([4]; 62 g ai/ha, Preemergence) was 100, the “Dayflower plant response rating” value ([4]; 125 g ai/ha, preemergence) was 100 and the “Plant response rating, Dayflower” value ([4]; Preemergence, 31 g ai/ha) was 100. The “Kochia plant response rating” value [5, 15] was 100, the “Kochia plant response rating” value [5, 18] was 100 and the “Plant response rating, Kochia” value [5, 21] was 100. For the same compound, the “Kochia plant response rating” value [5, 22] was 100, the “Cocklebur plant response rating” value [6, 15] was 0 and the “Cocklebur plant response rating” value [6, 18] was 0. The “Plant response rating, Cocklebur” value [6, 21] was 0, the “Cocklebur plant response rating” value [6, 22] was 0 and the “Velvetleaf plant response rating” value [7, 15] was 85. The “Velvetleaf plant response rating” value [7, 18] was 100, the “Plant response rating, Velvetleaf” value [7, 21] was 35 and the “Velvetleaf plant response rating” value [7, 22] was 100. For the same compound, the “Plant response rating, Barnyardgrass” value ([8]; Postemergence, 125 g ai/ha) was 70, the “Barnyardgrass plant response rating” value [8, 23] was 90 and the “Barnyardgrass plant response rating” value [8, 24] was 80. For the same compound, the “Plant response rating, Barnyardgrass” value ([8]; Preemergence, 500 g ai/ha) was 100, the “Dallisgrass plant response rating” value ([9]; 62 g ai/ha, Preemergence) was 75 and the “Dallisgrass plant response rating” value ([9]; 125 g ai/ha, preemergence) was 98. For the same compound, the “Plant response rating, Dallisgrass” value ([9]; Preemergence, 31 g ai/ha) was 25, the “Signalgrass plant response rating” value ([10]; preemergence) was 90 and the “Plant response rating, Signalgrass” value ([10]; Preemergence, 62 g ai/ha) was 90. For the same compound, the “Plant response rating, Itchgrass” value ([11]; 16 g ai/ha, preemergence) was 80, the “Itchgrass plant response rating” value ([11]; 62 g ai/ha, Preemergence) was 80 and the “Itchgrass plant response rating” value ([11]; 125 g ai/ha, preemergence) was 100. For the same compound, the “Plant response rating, Itchgrass” value ([11]; Preemergence, 31 g ai/ha) was 80, the “Plant response rating, Black Mustard” value ([12]; 16 g ai/ha, preemergence) was 90 and the “Black Mustard plant response rating” value ([12]; 62 g ai/ha, Preemergence) was 100. For the same compound, the “Black Mustard plant response rating” value ([12]; 125 g ai/ha, preemergence) was 100, the “Plant response rating, Black Mustard” value ([12]; Preemergence, 31 g ai/ha) was 90 and the “Plant response rating, Bluegrass” value ([13]; 16 g ai/ha, preemergence) was 65. For the same compound, the “Bluegrass plant response rating” value ([13]; 62 g ai/ha, Preemergence) was 95, the “Bluegrass plant response rating” value ([13]; 125 g ai/ha, preemergence) was 100 and the “Plant response rating, Bluegrass” value ([13]; Preemergence, 31 g ai/ha) was 75.
